# Measured values as given in patent EP4813463A2, “TYK2 INHIBITORS AND COMPOSITIONS AND METHODS THEREOF” (Lynk Pharmaceuticals Co. Ltd., priority 2023, dated 2024).
# Experiments:
# [1] = target: T1, TYK2-JH2 domain (Homo sapiens, UniProt P29597); assay: Binding activity test for JH2 domain of TYK2 (Tb-antibody/tracer FRET); conditions: for IC50: JH2 domain enzyme, 60 min at 25°C, then 4°C overnight, read-out: TYK2 JH2 Binding IC50; for JAK1/TYK2 selectivity: ratio of JAK1 JH2 to TYK2 JH2 binding IC50
# T1 construct: JAK1-JH2 domain or TYK2-JH2 domain enzyme in assay buffer
# How it was run: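 IC50 values (nM) come from TR-FRET readings taken after a 25°C incubation followed by overnight at 4°C. Each well held JH2 domain protein, Tb-antibody, tracer and test compound titrated in 11 threefold steps, with DMSO high and low controls.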
# [2] = target: T2, JAK1-JH2 domain (Homo sapiens, UniProt P23458); assay: Binding activity test for JH2 domain of JAK1 (Tb-antibody/tracer FRET); conditions: JH2 domain enzyme; 60 min at 25°C, then 4°C overnight; read-out: JAK1 JH2 Binding IC50
# T2 construct: JAK1-JH2 domain or TYK2-JH2 domain enzyme in assay buffer
# Procedure: Binding Activity test for JH2 domain of JAK1 and TYK2 […] Add 8μL/well in echo source plate, echo will add 75nL/well with 3-fold serial dilution for 11 points in assay plate. 75nL DMSO for high control and low control. […] For low control, add 5μL/well assay buffer. And then spin down at 1000rpm and centrifuge for 30 seconds. After enzyme system prepared, add 5μL of Tb-antibody solution into each well of assay plate. Spin down at 1000 rpm and centrifuge for 30sec. After Tb-antibody added, also add 5μL of tracer into the assay plate. Spin down at 1000rpm and centrifuge for 30sec. Incubate for […] at 25°C firstly and then continue to incubate the plate at 4°C overnight. Read by envision in FRET mode. The Luminescence value was recorded by a multi-label reader Envision (PerkinElmer). […] Table 2. IC50 on JH2 domain activity (nM)
# [3] = test system: Ba/F3-FL-TYK2-P760L cells; assay: Anti-proliferative assay in engineered Ba/F3 cells (Cell-Titer Glo, 72 h); format: cell-based; conditions: Mus musculus, BaF3, 72 h, 72 h compound treatment, concentration that causes 50% growth inhibition, read-out: Baf3-FL-T2P760L
# Procedure: Dimerization domain of Tel protein fused with JAK kinase domain was permanently transduced into Ba/F3 cells, whose proliferation is dependent on JAK activity in the absence of IL-3 induction. These engineered Ba/F3-FL-TYK2-P760L cells were used to monitor JAK inhibitory activities of the compounds in the cellular. Ba/F3 cells were cultured in RPMI-1640 (Corning) containing 10% fetal bovine serum. Cells were seeded at 2000/well of white flat bottom 96-well plates. The well containing medium only was used as background control. After 24h growth, cells were treated with compounds. The test compounds were dissolved in DMSO to a stock concentration of 20 mM. 3-fold serially diluted compounds for 9 concentrations with top concentration of 20 µM was added into the each well. The final DMSO concentration was 0.1%. The cells continued to grow at 37°C in 5% CO2 for 72 h after compound treatment. The viability was measured by cellular ATP determination using the Cell-Titer Glo luciferase reagent (Promega). The Luminescence value was recorded by a multi-label reader Envision (PerkinElmer). Inhibition Rate was calculated relative to vehicle (DMSO) treated control wells using following formula: % Inhibition = 100−(RLU_compound−RLU_blank)/(RLU_control−RLU_blank) × 100% [formula] wherein • RLU_compound = the relative light unit of cells treated with test compounds • RLU_blank = the relative light unit of medium with DMSO only • RLU_control = the relative light unit of cells treated with DMSO only
# Table 4. Ba/F3-FL-TYK2-P760L Cells IC50 Values of Exemplary Compounds
# T1 sequence (P29597 589-875 limits assumed): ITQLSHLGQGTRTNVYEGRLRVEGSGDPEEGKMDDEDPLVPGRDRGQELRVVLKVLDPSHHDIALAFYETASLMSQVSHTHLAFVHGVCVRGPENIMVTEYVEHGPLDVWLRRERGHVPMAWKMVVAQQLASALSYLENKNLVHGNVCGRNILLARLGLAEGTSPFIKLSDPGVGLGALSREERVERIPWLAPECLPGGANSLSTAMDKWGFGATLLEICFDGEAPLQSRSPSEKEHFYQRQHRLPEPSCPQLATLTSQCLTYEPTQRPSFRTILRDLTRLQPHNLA
# T2 sequence (P23458 583-855 limits assumed): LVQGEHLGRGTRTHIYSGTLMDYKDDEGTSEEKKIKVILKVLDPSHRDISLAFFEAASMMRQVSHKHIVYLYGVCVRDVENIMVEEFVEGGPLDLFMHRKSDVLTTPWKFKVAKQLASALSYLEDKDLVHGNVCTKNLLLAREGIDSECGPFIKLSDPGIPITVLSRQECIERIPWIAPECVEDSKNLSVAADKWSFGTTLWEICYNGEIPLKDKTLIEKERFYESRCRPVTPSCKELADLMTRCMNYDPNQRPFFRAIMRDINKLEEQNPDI
IC50 [1] [nM],IC50 [3] [nM],SMILES,JAK1/TYK2 selectivity [1],IC50 [2] [nM]
> 298,,"CCOC(=O)c1nnc(NC(=O)C2CC2)cc1Nc1cccc(-c2ncn(C)n2)c1OC [Example 86, Ethyl 6-(cyclopropanecarboxamido)-4-((2-methoxy-3-(1-methyl-1H-1,2,4-triazol-3-yl)phenyl)amino)pyridazine-3-carboxylate]",,> 298
0.709,119,"COC(=O)c1cnc(NC(=O)C2CC2)cc1Nc1nn(C)c2ccc(C3COCCO3)c(OC)c12 (centres unmarked) [Example 160, Methyl 4-((5-(1,4-dioxan-2-yl)-4-methoxy-1-methyl-1H-indazol-3-yl)amino)-6-(cyclopropanecarboxamido)nicotinate]",,
0.568,74,"COC(=O)c1cnc(NC(=O)C2CC2)cc1Nc1nn(C)c2ccc(C3(C(F)(F)F)CC3)c(OC)c12 [Example 161, Methyl 6-(cyclopropanecarboxamido)-4-((4-methoxy-1-methyl-5-(1-(trifluoromethyl)cyclopropyl)-1H-indazol-3-yl)amino)nicotinate]",,
0.261,26.6,"COC(=O)c1cnc(NC(=O)C2CC2)cc1Nc1nn(C)c2ccc(C3(C#N)CC3)c(OC)c12 [Example 162, Methyl 4-((5-(1-cyanocyclopropyl)-4-methoxy-1-methyl-1H-indazol-3-yl)amino)-6-(cyclopropanecarboxamido)nicotinate]",,
0.488,56.1,"COC(=O)c1cnc(NC(=O)C2CC2)cc1Nc1nn(C(F)(F)F)c2ccc(C(OC)C(F)(F)F)c(OC)c12 (centres unmarked) [Example 163, Methyl 6-(cyclopropanecarboxamido)-4-((4-methoxy-5-(2,2,2-trifluoro-1-methoxyethyl)-1-(trifluoromethyl)-1H-indazol-3-yl)amino)nicotinate]",,
0.481,50.1,"COC(=O)c1cnc(NC(=O)C2CC2)cc1Nc1nn(C)c2ccc(CO)c(OC)c12 [Example 164, Methyl 6-(cyclopropanecarboxamido)-4-((5-(hydroxymethyl)-4-methoxy-1-methyl-1H-indazol-3-yl)amino)nicotinate]",,
2.71,281,"COC(=O)c1cnc(NC(=O)C2CC2)cc1Nc1nn(C)c2ccc(C(OC)C(C)OC)c(OC)c12 (centres unmarked) [Example 165, Methyl 6-(cyclopropanecarboxamido)-4-((5-(1,2-dimethoxypropyl)-4-methoxy-1-methyl-1H-indazol-3-yl)amino)nicotinate]",,
1.11,113,"COC(=O)c1cnc(NC(=O)C2CC2)cc1Nc1nn(C)c2ccc([C@H](OC)C(C)OC)c(OC)c12 (stereo partly drawn) [Example 166, Methyl 6-(cyclopropanecarboxamido)-4-((5-((1S)-1,2-dimethoxypropyl)-4-methoxy-1-methyl-1H-indazol-3-yl)amino)nicotinate]",,
3.16,35,"CCC(F)(F)c1cnc(NC(=O)C2CC2)cc1Nc1nccc2c1N(C)C(C)c1nn(C)nc1-2 (centres unmarked) [Example 178, N-(5-(1,1-Difluoropropyl)-4-((2,4,5-trimethyl-4,5-dihydro-2H-[1,2,3]triazolo[4,5-c][1,7]naphthyridin-6-yl)amino)pyridin-2-yl)cyclopropanecarboxamide]",,
0.481,30.9,"COC(=O)c1cnc2cc1Nc1nn(c3ccc(C(OC)C(F)(F)F)c(OC)c13)CCOCc1nc(ccc1F)N2 (centres unmarked) [Example 179, Methyl 12-fluoro-23-methoxy-22-(2,2,2-trifluoro-1-methoxyethyl)-15-oxa-2,6,8,18,25,26-hexaazapentacyclo[16.6.1.1^{3,7}.1^{9,13}.0^{19,24}]heptacosa-1(25),3(27),4,6,9,11,13(26),19,21,23-decaene-4-carboxylate]",,

SMILES,IC50 [1] [nM],IC50 [3] [nM],JAK1/TYK2 selectivity [1],IC50 [2] [nM]
"CCn1nc(Nc2cc(NC(=O)C3CC3)ncc2C(=O)OC)c2c(OC)c(C(OC)C(F)(F)F)ccc21 (single isomer, unassigned) [Example 66A, Methyl (R*)-6-(cyclopropanecarboxamido)-4-((1-ethyl-4-methoxy-5-(2,2,2-trifluoro-1-methoxyethyl)-1H-indazol-3-yl)amino)nicotinate]",2.81,,106.23,> 298
"COC(=O)c1cnc(NC(=O)C2CC2)cc1Nc1nsc2ccc(C(OC)C(F)(F)F)c(OC)c12 (single isomer, unassigned) [Example 67A, Methyl (S*)-6-(cyclopropanecarboxamido)-4-((4-methoxy-5-(2,2,2-trifluoro-1-methoxyethyl)benzo[d]isothiazol-3-yl)amino)nicotinate]",0.21,,88.72,18.6
"COC(=O)c1cnc(NC(=O)C2CC2)cc1Nc1nsc2ccc(C(OC)C(F)(F)F)c(OC)c12 (single isomer, unassigned) [Example 67B, Methyl (R*)-6-(cyclopropanecarboxamido)-4-((4-methoxy-5-(2,2,2-trifluoro-1-methoxyethyl)benzo[d]isothiazol-3-yl)amino)nicotinate]",0.32,,372.97,119
"CCn1nc(Nc2cc(NC(=O)C3CC3)ncc2C(=O)OC)c2c(OC)c(C(O)C(F)(F)F)ccc21 (single isomer, unassigned) [Example 70B, Methyl (R*)-6-(cyclopropanecarboxamido)-4-((1-ethyl-4-methoxy-5-(2,2,2-trifluoro-1-hydroxyethyl)-1H-indazol-3-yl)amino)nicotinate]",2.12,,22.26,47.2
"[2H]C([2H])([2H])CC(=O)c1cnc(NC(=O)C2CC2)cc1Nc1nn(C)c2ccc([C@@H](O)C(F)(F)F)c(OC)c12 [Example 54B, (R)-N-(4-((4-methoxy-1-methyl-5-(2,2,2-trifluoro-1-hydroxyethyl)-1H-indazol-3-yl)amino)-5-(propanoyl-3,3,3-d3)pyridin-2-yl)cyclopropanecarboxamide]",0.433,,16.36,7.08
"[2H]C([2H])([2H])n1nc(Nc2cc(NC(=O)C3CC3)ncc2C(=O)OC)c2c(OC)c(C(OC)C(F)F)ccc21 (centres unmarked) [Example 69, Methyl 6-(cyclopropanecarboxamido)-4-((5-(2,2-difluoro-1-methoxyethyl)-4-methoxy-1-(methyl-d3)-1H-indazol-3-yl)amino)nicotinate]",0.13,,114.31,14.9
"CCONC(=O)c1cnc(NC(=O)C2CC2)cc1Nc1nn(C)c2ccc(C(OC)C(F)(F)F)c(OC)c12 (centres unmarked) [Example 75, 6-(Cyclopropanecarboxamido)-N-ethoxy-4-((4-methoxy-1-methyl-5-(2,2,2-trifluoro-1-methoxyethyl)-1H-indazol-3-yl)amino)nicotinamide]",0.09,,274.63,24.7
"[2H]C([2H])([2H])OC(=O)c1nnc(NC(=O)C2CC2)cc1Nc1nc2ccc(N3CC(OC)C3)cn2n1 [Example 125, Methyl-d3 6-(cyclopropanecarboxamido)-4-((6-(3-methoxyazetidin-1-yl)-[1,2,4]triazolo[1,5-a]pyridin-2-yl)amino)pyridazine-3-carboxylate]",52.4,,>5.70,> 298
"[2H]C([2H])([2H])NC(=O)c1cnc(NC(=O)C2CC23CC3)cc1Nc1nn(C)c2ccc([C@H](O)C(F)(F)F)c(OC)c12 (stereo partly drawn) [Example 199, 4-((4-Methoxy-1-methyl-5-((S)-2,2,2-trifluoro-1-hydroxyethyl)-1H-indazol-3-yl)amino)-N-(methyl-d3)-6-(spiro[2.2]pentane-1-carboxamido)nicotinamide]",0.091,,61.34,5.58
